Results published in patent publication US20240245712A1, “METHODS AND MATERIALS FOR IDENTIFYING AND TREATING MEMBRANOUS NEPHROPATHY” (Mayo Foundation for Medical Education and Research, priority 2023, published 2024).

System: syphilis-associated membranous nephropathy (nephrotic syndrome)
Assay: Follow-up of syphilis-associated NDNF-positive membranous nephropathy patients treated with antibiotics
Format: in vivo, human
Procedure: Biopsies for diagnosis were evaluated. The diagnosis of MN was confirmed by light microscopy (LM), immunofluorescence (IF) microscopy including PLA2R studies, and electron microscopy (EM). The clinical information was obtained from the accompanying charts. For detection of novel proteins, MS/MS was performed in 250 cases of PLA2R-negative cases (discovery cohort) that included cases used for identification of EXT1/EXT2, NELL1, SEMA3B, PCDH7, and FAT1 (Sethi et al., J. Am. Soc. Nephrol., 30:1123-1136 (2019); Sethi et al., Kid. Int., 97:163-174 (2020); Sethi et al., Kid. Int., 98:1253-1265 (2020); Sethi et al., J. Am. Soc. Nephrol., 32:1249-1261 (2021); and Sethi et al., J. Am. Soc. Nephrol., 33:1033-1044 (2022)). A NDNF polypeptide was detected in 3 cases of PLA2R-negative MN (NDNF-associated MN) by MS/MS. All 3 cases were negative for spectral counts for THSD7A, EXT1/EXT2, NELL1, SEMA3B, HTRA1, CNTN1, NCAM1, PCDH7, and FAT1 while baseline spectral counts for PLA2R were present in 2 of the 3 cases.
Using MS/MS, 14 cases of hepatitis B-associated MN and 5 cases of syphilis-associated MN were screened for MN antigens (validation cohort). Tissue from 4 cases (cases 4-7) of syphilis-associated MN were obtained from Cedars Sinai Medical Center and one case (cases 8-9) from Mayo Clinic. Cases 8 and 9 were from the same patient who was biopsied twice, 3 months apart. […]

## penicillin
Case 8, repeat biopsy 3 months later, after complete remission
  Repeat kidney biopsy finding after treatment: continued to show membranous nephropathy
Patients with syphilis and NDNF-associated MN, follow-up available in 4 of the 6 cases of syphilis
  Outcome of the nephrotic syndrome after antibiotic treatment: complete remission
